This assay concerns BDF1 mice, M5076 sarcoma ip, median survival T/C. As to the kind of experiment: NCI In Vivo Anticancer Drug Screen. Data for tumor model Sarcoma M5076 (intraperitoneal) in B6D2F1 (BDF1) mice. As to conditions: endpoint: median survival time, higher = longer survival. The procedure:
The antitumor activity of compounds was measured in mice bearing transplantable tumors. Survival or tumor size were measured and the results are expressed as the measurement made in the treated group (T) divided by the measurement made in the vehicle treated control group (C). The tumor model used in this assay is Sarcoma M5076 (intraperitoneal) in B6D2F1 (BDF1) mice

Setting [1] is: dose: 50.0 mg/kg/injection, schedule: Q04DX004 (ip), vehicle: saline.
[2] abbreviates: dose: 100.0 mg/kg/injection, schedule: Q04DX004 (ip), vehicle: saline.

This is an account of results in PubChem BioAssay AID286 (DTP/NCI, 2004).

Where “and” joins values, the source holds several entries; their conditions need not be identical. Equal values may be shown once. Inconclusive results and toxic doses are left out. Starred links: 1 amine or outer side, 2 acyl side, 3 side chain; linkers in the order of their positions; H or OH if unused. Positions of bridges follow the written chain, without caps; N, C: chain ends. Non-standard residues stand in square brackets, D forms with d. Residues, ends and D or L forms follow the SMILES beside them. Chains are numbered I, II in the order given. Actinocin(9to1) = Cc1c2oc3c(C)ccc(C(=O)[*:1])c3nc-2c(C(=O)[*:2])c(N)c1=O; aThr = C[C@H](O)[C@H](N)C(=O)O; NMeV = CN[C@H](C(=O)O)C(C)C; Sar = CNCC(=O)O

Take `CC[C@](O)(C(=O)O)c1cc2n(c(=O)c1CO)Cc1cc3ccccc3nc1-2`: the T/C (dose: 12.5 mg/kg/injection, schedule: Q04DX004 (ip), vehicle: saline) is 124 % of control.

For the molecule `S=c1nc[nH]c2nc[nH]c12`, the T/C is 96 % of control (dose: 20.0 mg/kg/injection, schedule: Q04DX005 (ip), vehicle: alkali diluted with saline) and 120 % of control (dose: 80.0 mg/kg/injection, schedule: Q04DX005 (ip), vehicle: alkali diluted with saline).

In the case of `COC1N(C2CC(O)C(CO)O2)C(=O)NC(=O)C1(F)Br` (stereo not drawn), the T/C (dose: 25.0 mg/kg/injection, schedule: Q04DX004 (ip), vehicle: saline) was 110 % of control; the T/C under setting [1] was 115 % of control; the T/C under setting [2] is 116 % of control; the T/C (dose: 400.0 mg/kg/injection, schedule: Q04DX004 (ip), vehicle: saline) was 124 % of control.

Regarding `O=C(O)c1ccc(C(=O)O)c(C(=O)O)c1.[NH-]C1CCCCC1[NH-].[Pt+2]`, the T/C (dose: 3.11 mg/kg/injection, schedule: Q04DX005 (ip), vehicle: sodium bicarbonate) was 206 % of control; the T/C (dose: 5.18 mg/kg/injection, schedule: Q04DX005 (ip), vehicle: sodium bicarbonate) was 181 % of control; the T/C (dose: 8.64 mg/kg/injection, schedule: Q04DX005 (ip), vehicle: sodium bicarbonate) was 216 % of control; the T/C (dose: 14.4 mg/kg/injection, schedule: Q04DX005 (ip), vehicle: sodium bicarbonate) is 245 % of control; the T/C (dose: 24.0 mg/kg/injection, schedule: Q04DX005 (ip), vehicle: sodium bicarbonate) was 381 % of control; the T/C (dose: 40.0 mg/kg/injection, schedule: Q04DX005 (ip), vehicle: sodium bicarbonate) is 87 % of control.

Take `CN(Cc1cnc2nc(N)nc(N)c2n1)c1ccc(C(=O)N[C@@H](CCC(=O)O)C(=O)O)cc1`: the T/C was 93 % of control (dose: 1.7 mg/kg/injection, schedule: Q01DX009 (ip), vehicle: sodium bicarbonate); 108 % of control (dose: 2.0 mg/kg/injection, schedule: Q04DX005 (ip), vehicle: sodium bicarbonate); 101 % of control (dose: 2.6 mg/kg/injection, schedule: Q01DX009 (ip), vehicle: sodium bicarbonate); 101 % of control (dose: 4.0 mg/kg/injection, schedule: Q04DX005 (ip), vehicle: sodium bicarbonate); 112 % of control (dose: 8.0 mg/kg/injection, schedule: Q04DX005 (ip), vehicle: sodium bicarbonate).

As for `OC(CBr)C(O)C(O)C(O)CBr` (stereo not drawn), the T/C was 111 % of control (dose: 50.0 mg/kg/injection, schedule: Q04DX004 (ip), vehicle: saline with Tween-80); 114 % of control (dose: 100.0 mg/kg/injection, schedule: Q04DX004 (ip), vehicle: saline with Tween-80); 122 % of control (dose: 108.0 mg/kg/injection, schedule: Q04DX005 (ip), vehicle: saline with Tween-80); 114 % of control (dose: 200.0 mg/kg/injection, schedule: Q04DX004 (ip), vehicle: saline with Tween-80); 114 % of control (dose: 400.0 mg/kg/injection, schedule: Q04DX004 (ip), vehicle: saline with Tween-80); 176 % of control (dose: 500.0 mg/kg/injection, schedule: Q04DX005 (ip), vehicle: saline with Tween-80). Moreover, the T/C by setting is: (dose: 800.0 mg/kg/injection, schedule: Q04DX004 (ip), vehicle: saline with Tween-80) 108 % of control; (dose: 833.0 mg/kg/injection, schedule: Q04DX005 (ip), vehicle: saline with Tween-80) 176 % of control.

As to `Cc1c2oc3c(C)ccc(C(=O)N[C@@H]4C(=O)N[C@H](C(C)C)C(=O)N5CCC[C@H]5C(=O)N(C)CC(=O)N(C)[C@@H](C(C)C)C(=O)O[C@H]4C)c3nc-2c(C(=O)N[C@@H]2C(=O)N[C@H](C(C)C)C(=O)N3CCC[C@H]3C(=O)N(C)CC(=O)N(C)[C@@H](C(C)C)C(=O)O[C@H]2C)c(N)c1=O` (I: [aThr][dV]P[Sar][NMeV] / II: [aThr][dV]P[Sar][NMeV]; ester I:1-I:C, II:1-II:C; linker I:N-II:N via Actinocin(9to1)), the T/C was 165 % of control (dose: 0.1 mg/kg/injection, schedule: Q04DX004 (ip), vehicle: saline + alcohol) and 178 % of control (dose: 0.2 mg/kg/injection, schedule: Q04DX004 (ip), vehicle: saline + alcohol).

For `O=C1C2C3C=CC(C2C(=O)N1CO)C1C2C(=O)N(CO)C(=O)C2C31` (stereo not drawn), the T/C (dose: 12.5 mg/kg/injection, schedule: Q04DX004 (ip), vehicle: water) is 106 % of control; the T/C (dose: 25.0 mg/kg/injection, schedule: Q04DX004 (ip), vehicle: water) is 105 % of control; the T/C (dose: 50.0 mg/kg/injection, schedule: Q04DX004 (ip), vehicle: water) is 106 % of control.

As to `COC1=C(C)C(=O)C2=C(C1=O)C(CO)N1C(C#N)C3CC4C(C1C2N1CCOC41)N3C` (stereo not drawn), the T/C is 116 % of control (dose: 0.06 mg/kg/injection, schedule: Q01DX009 (ip), vehicle: saline + alcohol); 95 % of control (dose: 0.13 mg/kg/injection, schedule: Q01DX009 (ip), vehicle: saline + alcohol); 98 % of control (dose: 0.25 mg/kg/injection, schedule: Q01DX009 (ip), vehicle: saline + alcohol); 103 % of control (dose: 0.5 mg/kg/injection, schedule: Q01DX009 (ip), vehicle: saline + alcohol); 122 % of control (dose: 1.0 mg/kg/injection, schedule: Q01DX009 (ip), vehicle: saline + alcohol); 107 % of control (dose: 62.5 micrograms/kg/injection, schedule: Q01DX009 (ip), vehicle: acid diluted with saline). Further, the T/C was 96 % of control (dose: 125.0 micrograms/kg/injection, schedule: Q01DX009 (ip), vehicle: acid diluted with saline); 96 % of control (dose: 250.0 micrograms/kg/injection, schedule: Q01DX009 (ip), vehicle: acid diluted with saline); 109 % of control (dose: 500.0 micrograms/kg/injection, schedule: Q01DX009 (ip), vehicle: acid diluted with saline).

On to `CNc1nc(N(C)C)nc(N(C)C)n1`, for which the T/C under setting [1] was 114 % of control; the T/C under setting [2] was 119 % of control; the T/C (dose: 200.0 mg/kg/injection, schedule: Q04DX004 (ip), vehicle: saline) is 123 % of control.

With `COc1cc2cc(c1Cl)N(C)C(=O)C[C@H](OC(=O)[C@H](C)N(C)C(C)=O)[C@]1(C)O[C@H]1[C@H](C)[C@@H]1C[C@@](O)(NC(=O)O1)[C@H](OC)C=C/C=C(\C)C2`, the T/C is, setting by setting: (dose: 37.0 micrograms/kg/injection, schedule: Q04DX004 (ip), vehicle: saline) 117 % of control; (dose: 37.0 micrograms/kg/injection, schedule: Q04DX005 (ip), vehicle: saline) 113 % of control; (dose: 75.0 micrograms/kg/injection, schedule: Q04DX004 (ip), vehicle: saline) 112 % of control; (dose: 75.0 micrograms/kg/injection, schedule: Q04DX005 (ip), vehicle: saline) 123 % of control; (dose: 150.0 micrograms/kg/injection, schedule: Q04DX004 (ip), vehicle: saline) 119 % of control.

On to `N[C@H](C(=O)O)[C@@H]1CC(Cl)=NO1`, for which the T/C reads like this: (dose: 15.0 mg/kg/injection, schedule: Q04DX005 (ip), vehicle: saline) 113 % of control; (dose: 60.0 mg/kg/injection, schedule: Q04DX005 (ip), vehicle: saline) 160 % of control; (dose: 120.0 mg/kg/injection, schedule: Q04DX005 (ip), vehicle: saline) 195 % of control and 160 % of control.

In the case of `O=C1c2ccccc2C(=O)c2c(NCCNCCO)ccc(NCCNCCO)c21`, the T/C (dose: 5.0 mg/kg/injection, schedule: Q04DX005 (ip), vehicle: saline) was 277 % of control and the T/C (dose: 10.0 mg/kg/injection, schedule: Q04DX005 (ip), vehicle: saline) was 357 % of control.

As to `C/C(=N\NC(=S)N1CC2CCC(CC2)C1)c1nccs1`, the T/C is, setting by setting: (dose: 12.5 mg/kg/injection, schedule: Q04DX004 (ip), vehicle: saline with Tween-80) 107 % of control; (dose: 25.0 mg/kg/injection, schedule: Q04DX004 (ip), vehicle: saline with Tween-80) 106 % of control.

Regarding `C[C@@](O)(/C=C/[C@H]1CC=CC(=O)O1)[C@@H](C[C@@H](O)\C=C/C=C\C=C\CO)OP(=O)(O)O`, the T/C (dose: 1.0 mg/kg/injection, schedule: Q01DX009 (ip), vehicle: water) was 112 % of control; the T/C (dose: 2.0 mg/kg/injection, schedule: Q01DX009 (ip), vehicle: water) was 106 % of control; the T/C (dose: 4.0 mg/kg/injection, schedule: Q01DX009 (ip), vehicle: water) is 98 % of control; the T/C (dose: 8.0 mg/kg/injection, schedule: Q01DX009 (ip), vehicle: water) was 120 % of control.

Take `C=C1C(O)C2OC3(CCC(/C=C/C(C)C4CC5(C)SC5C5(OC(CC(C)(O)C(=O)O)CCC5O)O4)O3)CCC2OC1C(O)CC(C)C1OC2(CCCCO2)CCC1C` (stereo not drawn): the T/C by setting is: (dose: 0.5 micrograms/kg/injection, schedule: Q01DX009 (ip), vehicle: saline + alcohol) 108 % of control; (dose: 1.0 micrograms/kg/injection, schedule: Q01DX009 (ip), vehicle: saline + alcohol) 111 % of control; (dose: 2.0 micrograms/kg/injection, schedule: Q01DX009 (ip), vehicle: saline + alcohol) 120 % of control; (dose: 2.5 micrograms/kg/injection, schedule: Q01DX009 (ip), vehicle: saline + alcohol) 155 % of control.
